From paper PMC6767265, “Cytotoxicity and Apoptosis Induction of Coumarins and Carbazole Alkaloids from Clausena Harmandiana” (Molecules, 2019)
Marks after values point to notes of the source that are not given here.

Assays:
[1] = DPPH radical scavenging assay; format: biochemical; settings: for DPPH Assay IC50 / IC50: 30 min in the dark, absorbance 517 nm; for DPPH radical scavenging activity classification: classified from IC50 in µg/mL
Method: The 2,2–diphenyl–1–picrylhydrazyl (DPPH) radical scavenging assay was conducted as per the previous method. Briefly, the stock solutions of 10 mM DPPH was prepared in methanol. The DPPH was mixed with samples (100 µL each) at various concentrations (1−500 µM) in 96 wells plate and incubated for 30 min in a dark condition. The absorbance of DPPH radical was measured at 517 nm using a microplate reader (Tecan, Lyon, France). Trolox was used as a positive control. The half maximum inhibitory concentration (IC50 value) was calculated from the plot of percentage of DDPH radical inhibition versus concentration of samples using the following formula: % DPPH radical inhibition = [(Ab − As)/Ab] × 100,(1) where Ab = absorbance of the reagent blank, and As = absorbance of the sample. Each experiment was done in five replications and results are expressed as average values.

[2] = Ferric reducing antioxidant power (FRAP) assay; format: biochemical; settings: 100 µM compound
Method: FRAP assay was performed following the pervious study with slight modification. FRAP reagent was prepared by mixing 300 mM acetate buffer (pH 3.6), 20 mM ferric chloride solution and 10 mM TPTZ solution in the ratio of 10:1:1 and incubated at 37 °C for 30 min. Then, 150 µL of FRAP reagent was added with 50 µL of the sample (100 µM of isolated compounds or 100 µg/mL of the CH2Cl2 crude extract) in each well of the 96-wells plate. The absorbance was measured at 595 nm using microplate reader (Tecan, Lyon, France). Trolox was used as a positive control. The FRAP value was calculated from the linear equation between the absorbance and ferrous sulfate standard curves (y = 0.0548x + 0.0213, R^2 = 0.9989) and expressed as µM of ferrous sulfate equivalents.

[3] = test system: noncancerous African green monkey kidney epithelial cell line (Vero); assay: Cell viability assay (neutral red), Vero; format: cell-based; parameters: key to IC50 Vero: inactive: Inactive means cell viability percentage was >50% at the maximum concentration used (>100 µM for the compound or >100 µg/mL for the extract); settings: 24 h, inactive = viability >50% at >100 µM
Method: (§1) The human lung adenocarcinoma cell line (SK-LU-1), human colon carcinoma cell line (HCT116), human hepatocellular carcinoma cell line (HepG2) and noncancerous African green monkey kidney epithelial cell line (Vero) were cultured in Dulbecco’s modified Eagle’s medium (DMEM) supplemented with 10% fetal bovine serum, 100 IU/mL penicillin and […] streptomycin. Cells were incubated at 37 °C with 95% air and 5% CO2 until they reached approximately 80% confluence before use.
(§2) Cell viability assay was assessed by neutral red (NR). Briefly, cells at a density of 3 × 10^4 cells/well were seeded in 96-wells plate and incubated for 24 h. The sample at concentration, ranging from 10 to 500 µM, were added and incubated for 24 h. After incubation time, cells were washed with PBS. NR reagent (50 µg/mL) was added to each well and incubated for another 2 h. After that, cells were washed with PBS and lyzed with 0.33% HCl in isopropanol. Cisplatin was used as a positive control. The absorbance of NR was detected using microplate reader (Tecan, Lyon, France) at 520 nm. The percentage of cell viability was calculated vis-à-vis the untreated cells and cytotoxicity was expressed as the inhibition concentration at 50% (IC50). The final DMSO concentration was not exceed 0.1%v/v to lessen the cytotoxicity (<10%).

[4] = test system: human hepatocellular carcinoma cell line (HepG2); assay: Cell viability assay (neutral red), HepG2; format: cell-based; settings: for IC50: 24 h, neutral red; for Selectivity Index HepG2: cancer cells over noncancerous Vero cells
Method: as §1, §2

[5] = test system: human lung adenocarcinoma cell line (SK-LU-1); assay: Cell viability assay (neutral red), SK-LU-1; format: cell-based; parameters: key to IC50 SK-LU-1: inactive: Inactive means cell viability percentage was >50% at the maximum concentration used (>100 µM for the compound or >100 µg/mL for the extract); settings: for IC50 / IC50 SK-LU-1: 24 h, neutral red, inactive = viability >50% at >100 µM; for Selectivity Index SK-LU-1: cancer cells over noncancerous Vero cells
Method: as §1
as §2, with “The sample at concentration, ranging from 10 to 500 µM, were added and incubated for 24 h.” left out

[6] = test system: human colon carcinoma cell line (HCT116); assay: Cell viability assay (neutral red), HCT116; format: cell-based; parameters: key to IC50 HCT116: inactive: Inactive means cell viability percentage was >50% at the maximum concentration used (>100 µM for the compound or >100 µg/mL for the extract); settings: for IC50 / IC50 HCT116: 24 h, neutral red, inactive = viability >50% at >100 µM; for Selectivity Index HCT116: cancer cells over noncancerous Vero cells
Method: as §1
as §2, with “The sample at concentration, ranging from 10 to 500 µM, were added and incubated for 24 h.” left out

Structure (SMILES)	DPPH Assay IC50 [1]	IC50 [1] [µM]	DPPH radical scavenging activity classification [1]	FRAP Value [2]	IC50 Vero [3]	IC50 ([4]; Homo sapiens, HepG2) [µM]	Selectivity Index HepG2 [4]	IC50 ([5]; Homo sapiens, SK-LU-1) [µM]	Selectivity Index SK-LU-1 [5]	IC50 ([6]; Homo sapiens, HCT-116) [µM]	Selectivity Index HCT116 [6]	further results
CC(C)=CCc1c(O)c(C=O)cc2c1[nH]c1ccccc12 [Heptaphylline (1), heptaphylline]	93.5 ± 2.2^f µg/mL	335 ± 7.8	low radical scavenger	1.0 ± 0.0^g µM FeSO4 Equivalents	inactive^dB	37.8 ± 2.6	(2.6)	83.1 ± 2.6	(1.2)	74.7 ± 2.1	(1.3)	FRAP Value ([2]; listed as heptaphylline): 1.0 µM FeSO4 Equivalents
C=CC(C)(C)c1c2c(c(OC)c3ccc(=O)oc13)C=CC(C)(C)O2 [Dentatin (3), dentatin]	>500^h µg/mL	> 500	no activity	4.7 ± 0.1^f µM FeSO4 Equivalents	inactive^cB	47.6 ± 2.8	(2.1)	45.4 ± 2.5	(2.2)	73.9 ± 2.5	(1.4)	FRAP Value ([2]; listed as dentatin): 4.7 µM FeSO4 Equivalents
COc1ccc2c(c1)[nH]c1c(CC=C(C)C)c(O)c(C=O)cc12 [7-Methoxyheptaphylline (7), 7-methoxyheptaphylline]	96.8 ± 1.1^g µg/mL	313 ± 3.4	low radical scavenger	1.4 ± 0.1^g µM FeSO4 Equivalents	inactive^bB	65.5 ± 2.7	(1.5)	–	1.0)	–	(1.0)	FRAP Value ([2]; listed as 7-methoxyheptaphylline): 1.4 µM FeSO4 Equivalents; IC50 SK-LU-1 [5]: inactive^bF; IC50 HCT116 [6]: inactive^bE
COc1ccc2c(c1)[nH]c1cc(O)c(C=O)cc12 [7-Methoxymukonal (5), 7-methoxymukonal]	6.8 ± 0.5^b µg/mL	26.2 ± 2	moderate radical scavenger	47.0 ± 0.6^a µM FeSO4 Equivalents	inactive^bB	82.6 ± 2.8	(1.2)	–	(1.0)	–	(1.0)	FRAP Value ([2]; listed as 7-methoxymukonal): 47.0 µM FeSO4 Equivalents; IC50 SK-LU-1 [5]: inactive^bF; IC50 HCT116 [6]: inactive^bE
C=CC(C)(C)c1c2c(c(O)c3ccc(=O)oc13)C=CC(C)(C)O2 [Nordentatin (6), nordentatin]	12.0 ± 0.8^c µg/mL	38.3 ± 2.5	moderate radical scavenger	9.0 ± 1.1^e µM FeSO4 Equivalents	inactive^cB	29.9 ± 3.2	(3.3)	67.3 ± 1.2	(1.5)	63.6 ± 2.3	(1.6)	FRAP Value ([2]; listed as nordentatin): 9.0 µM FeSO4 Equivalents
Cc1c(C)c2c(c(C)c1O)CCC(C)(C(=O)O)O2 (stereo not drawn) [Trolox, 6-hydroxy-2,5,7,8-tetramethylchroman-2-carboxylic acid, reference compound]	4.2 ± 0.1^a µg/mL	16.8 ± 0.6	moderate radical scavenger	37.7 ± 0.8^c µM FeSO4 Equivalents	–	–	–	–	–	–	–	FRAP Value ([2]; listed as trolox): 37.7 µM FeSO4 Equivalents
N.N.[Cl][Pt][Cl] [Cisplatin, reference compound]	–	–	–	–	inactive^dB	–	(4.6)	–	(2.3)	–	(1.4)	IC50 [4]: 21.8 ± 3 µM; IC50 [5]: 42.7 ± 1.9 µM; IC50 [6]: 71.9 ± 2.7 µM
